Measured values taken from EP2177496A1, “New analogs of polysphorin and uses thereof for treating or preventing malaria” (Assistance Publique - Hôpitaux de Paris, priority 2008, dated 2010).

What was measured:
P. falciparum [1] = experiment: In vitro activity against erythrocytic stage of P. falciparum ([3H]-hypoxanthine incorporation); type: cell-based, chloroquine-sensitive (3D7w) clone of P. falciparum; settings: read-out: IC50 (µM) Erythrocytic stage P. falciparum
Experimental: After 48 hours, [^3H]-hypoxanthine (Amersham) was added to each well and then plates were incubated for 24 hours. Parasites were harvested, and incorporation of radioactivity was determined by liquid scintillation counting (Beckman LS1701, les Ulis, France). The counts-per-minute (cpm) was adjusted relative to controls to obtain percentages of inhibition. […] This estimation was obtained with IC50 estimator software. For the assay, the parasites were synchronized by D-sorbitol treatment.

in vitro = settings: human, TC50 (µM) Hepatic stage (rodent) P. yoelii, 50% toxic concentration, MTT assay
Experimental: (§1) A preliminary screening was performed consisting in the infection of human CD81 transfected hepatocarcinome cell line HepG2 (HepG2/CD81) with P. yoelii. IC50 (inhibiting concentration 50), TC50 (toxic concentration 50) and TI (therapeutic index, ratio TC50/IC50) were estimated for each drug tested. Selected molecules (small IC50, high TC50 and high TI) were analyzed in human hepatocytes. Briefly, HepG2 cells were plated in 96-well plates for 24 h prior to inoculation with 1x10^4 of P. yoelii sporozoites. Sporozoites-inoculated culture plates were centrifuged for 5 min at 1,500 rpm at 4°C in order to enhance the infection rate as described by Gruner (Gruner et al., 2005). After 3h at 37°C, the cultures were washed and further incubated in fresh medium for 48 h (P. yoelii) before quantification of infected cells in triplicate wells.
(§2) Toxicity was determined by using the colorimetric 3-(4,5-dimethylthiazol-2-yl)-2,5-diphenyltetrazolium bromide (MTT) assay (Mosman., 1983). Briefly, HepG2 cells cultures were prepared in 96-well plates as described above. Drugs were tested in triplicate wells at eight concentrations ranging from 6.4 × 10^-3 µM to 200 µM. One hundred microliters of 0.5 mg/ml MTT (5 mg/ml MTT in water diluted 10x in William's medium without fetal bovine serum) was added to each well, and the plates were incubated for 4 h (37°C, 5% CO2). The medium was discarded, and the cells were resuspended in ethanol and dimethyl sulfoxide (50/50, vol/vol). The plates were read in an enzyme-linked immunosorbent assay plate reader (550-nm absorbance wavelength and 620-nm reference wavelength). The results were expressed as the percent change in viability compared to drug-free control cultures. […] Each drug and concentration was tested at least in triplicate. The selectivity index (SI) was defined as the ratio of the TC50 to the IC50.

[2] = MTT toxicity assay reported with the erythrocytic stage (TC50), cells not named; type: cell-based; settings: 50% toxic concentration, read-out: TC50 (µM) Erythrocytic stage P. falciparum
Excerpt: The selectivity index (SI) was defined as the ratio of the TC50 to the IC50.

P. yoelii = experiment: In vitro activity against hepatic stage of P. yoelii (sporozoite-infected HepG2/CD81 cells or rodent hepatocytes, liver-schizont count); type: cell-based, P. yoelii (265 BY strain); settings: rodent parasite P. yoelii, cultures arrested at 48 h
Experimental: (§3) Activity against pre-erythrocytic stages was tested by in vitro assays with the human parasite P. falciparum (NF54 strain) and the rodent parasite P. yoelii (265 BY strain). The rodent parasite P. yoelii is produced in the insectarium of the INSERM Unit U511 and human parasite P. falciparum was obtained from collaboration with R. Sauerwein.
(§4) Sporozoites were obtained from infected salivary glands of Anopheles stephensi mosquitoes fed on continuous culture of P. falciparum (coll R. Sauerwein, Netherlands), or on P. yoelii parasitized mice (insectarium of the INSERM Unit U511). After aseptic dissection, salivary glands were homogenized in a glass grinder and diluted in culture medium or sterile phosphate-buffered saline (PBS).
(§5) Primary cultures of rodent or human hepatocytes were prepared from liver segments taken from mouse or from adult patients undergoing partial hepatectomy. Hepatocytes were isolated using the two-step enzymatic perfusion technique (Guguen-Guillouzo et al., 1982) and were further purified on a discontinuous Percoll gradient. Then, hepatocytes were seeded in eight-chamber Lab-Tek permanox slides at a density of 1,4x10^5 cells per cm^2, and maintained under culture conditions as described in Mahmoudi et al., 2003. After complete adherence to culture plates, rodent and human hepatocytes were infected with P. yoelii or P. falciparum sporozoites, respectively, aseptically dissected from mosquitoes' salivary glands, as described above. Hepatocytes were inoculated with 6x10^4 sporozoites per Lab-Tek well. Compounds to be tested were added at the time of infection and/or after penetration of the sporozoites and at different concentrations (three wells per dilution). Every day, medium was replaced by fresh medium containing or not different concentrations of the molecules to be tested. Cultures were arrested at 48 hours (P. yoelii) or 6 days (P. falciparum) and cells were fixed with methanol. Liver-schizonts were quantified by microscopic examination after fluorescent labeling using a primary mouse antibody directed against Plasmodium heat shock protein-70 (Renia et al., 1990) produced in INSERM unit 511 and a secondary goat anti-mouse antibody conjugated with fluorescein isothiocyanate (Sigma Aldrich).

HepG2 cells = experiment: in vitro; settings: read-out: TC50 (µM) Hepatic stage (rodent) P. yoelii; 50% toxic concentration, MTT assay
Experimental: as §1, §2

P. falciparum [3] = experiment: In vitro activity against hepatic stage of P. falciparum in primary human hepatocytes (liver-schizont count); type: cell-based, P. falciparum (NF54 strain); settings: cultures arrested at 6 days
Experimental: as §3, §4
as §5, with “Every day, medium was replaced by fresh medium containing or not different concentrations of the molecules to be tested. Cultures were arrested at 48 hours (P. yoelii) or 6 days (P. falciparum) and cells were fixed with methanol.” left out

[4] = MTT toxicity assay on human hepatocytes (TC50)
Experimental: Cytotoxic effect of the compounds was evaluated on human hepatocytes, obtained as described above. The colorimetric MTT assay was used (Mosman., 1983). Briefly, hepatocyte cultures were prepared in 96-well plates as described above. Drugs were tested in triplicate wells at eight concentrations ranging from 6.4 x 10^-3 µM to 200 µM. One hundred microliters of 0.5 mg/ml MTT (5 mg/ml MTT in water diluted 10x in William's medium without fetal bovine serum) was added to each well, and the plates were incubated for 4 h (37°C, 5% CO2). The medium was discarded, and the cells were resuspended in ethanol and dimethyl sulfoxide (50/50, vol/vol). The plates were read in an enzyme-linked immunosorbent assay plate reader (550-nm absorbance wavelength and 620-nm reference wavelength). The results were expressed as the percent change in viability compared to drug-free control cultures. […] Each drug and concentration was tested at least in triplicate. The selectivity index (SI) was defined as the ratio of the TC50 to the IC50.

[5] = Plasmodium falciparum, Erythrocyte, 72 h, ring stage parasitized erythrocytes, 3D7w clone, 48 h + 24 h with [3H]-hypoxanthine
[6] = Plasmodium yoelii, Hepatocyte, 48 h
[7] = ring stage parasitized erythrocytes, 3D7w clone, 48 h + 24 h with [3H]-hypoxanthine

Structure (SMILES)	CC50 (in vitro) [µM]	CC50 [2] [µM]	IC50 (P. falciparum [1]; [5]) [µM]	IC50 (P. falciparum [1]; [7]) [µM]	IC50 (P. yoelii) [µM]	CC50 (HepG2 cells) [µM]	further results
CCN(CC)CCCC(C)Nc1ccnc2cc(Cl)ccc12 (centres unmarked) [Chloroquine, reference compound]							IC50 (P. falciparum [1]; Plasmodium falciparum, Erythrocyte, 72 h): 0.04 µM
COc1cc(NC(C)CCCN)c2ncccc2c1 (centres unmarked) [Primaquine, reference compound]	12.6						
COc1cccc(OC)c1OC(C)C(O)c1ccc2c(c1)OC(F)(F)O2 (centres unmarked) [drawing 70]	54.9	55	> 40				IC50 (P. yoelii; [6]): 20.1 µM
COc1cccc(OC)c1OC(C)C(O)c1ccc2c(c1)OC(F)(F)O2 (centres unmarked) [drawing 71]		53		> 40	20.2		
COc1cc(C)cc(OC)c1OC(C)C(O)c1ccc2c(c1)OC(F)(F)O2 (centres unmarked) [drawing 72]	56.8	57	13.6		19		
COc1cc(C)cc(OC)c1OC(C)C(O)c1ccc2c(c1)OC(F)(F)O2 (centres unmarked) [drawing 73]		53.7		13.5	5.62	53.7	
COc1cc(C(O)C(C)Oc2c(OC)cccc2OC)cc(OC)c1OC (centres unmarked) [drawing 74]		58	> 40		28.6	57.9	
COc1cc(C(O)C(C)Oc2c(OC)cccc2OC)cc(OC)c1OC (centres unmarked) [drawing 75]					2.52	0.126	
COc1cc(C(O)C(C)Oc2c(OC)cc(C)cc2OC)cc(OC)c1OC (centres unmarked) [drawing 76]	47	47	> 40		50.1		
COc1cc(C(O)C(C)Oc2c(OC)cc(C)cc2OC)cc(OC)c1OC (centres unmarked) [drawing 77]		49.5		> 40	0.0045 ± 0.005	49.5	IC50 (P. falciparum [3]; Plasmodium falciparum, Hepatocyte, 144 h): 0.38 µM; CC50 [4]: 125 µM
COc1cc(C(O)C(C)Oc2c(OC)cc(-c3ccccc3)cc2OC)cc(OC)c1OC (centres unmarked) [drawing 78]	> 50	50	11.5				IC50 (P. falciparum [3]): 0.02 µM; CC50 [4]: 50 µM; IC50 (P. yoelii; [6]): 3.54 ± 4.9 µM
COc1cc(C(O)C(C)Oc2c(OC)cc(-c3ccccc3)cc2OC)cc(OC)c1OC (centres unmarked) [drawing 79]		50		20	3.61 ± 4	> 50	IC50 (P. falciparum [3]): 0.007 µM
